In the NIST ThermoML archive (doi:10.1021/acs.jced.7b01035):

Test: wn = mass fraction of the nth substance listed
Conditions: 500 kPa, Liquid, Concentric cylinders viscometry

NCCCO [3-amino-1-propanol] + O
viscosity [mPa·s]
Conditions	w1 = 0.1	w1 = 0.2	w1 = 0.3	w1 = 0.4	w1 = 0.5	w1 = 0.6	w1 = 0.7	w1 = 0.8	w1 = 0.9	w1 = 1
298.15 K	1.27	1.84	2.95	4.76	7.58	12.17	18.56	26.23	29.26	30.43
303.15 K	1.14	1.62	2.5	3.97	6.18	9.64	14.5	20.98	22.76	23.87
308.15 K	1.01	1.41	2.15	3.34	5.1	7.69	11.48	15.73	17.96	19.07
313.15 K	0.89	1.25	1.82	2.82	4.23	6.25	9.21	12.52	14.36	15.27
318.15 K	0.81	1.12	1.59	2.42	3.59	5.17	7.5	10.09	11.6	12.36
323.15 K	0.75	1.01	1.4	2.11	3.07	4.34	6.17	8.24	9.47	10.22
328.15 K	0.72	0.92	1.24	1.86	2.65	3.69	5.14	6.81	7.78	8.54
333.15 K	0.66	0.84	1.1	1.66	2.31	3.17	4.33	5.68	6.47	7.12
